One experiment deals with anti-collagen antibodies. The experiment in a line: CIA-EE (Example 1): anti-collagen antibody production. It is filed as in vivo, Male DBA/1O1aHsd mice. To be noted: measured day 21 and day 45, vs OA-EE placebo. How it is done: (§1) The appropriate ethyl esters were blended into the base diet to provide approximately 2500 and 5000 mg/kg polyunsaturated fatty acid (PUFA) per day. The human equivalent doses (HED) were approximately 12 g/day and 22 g/day, respectively. The 2500 mg/kg EE diets contained the following fat blend: 1 part flax, 12 parts HCOC and 23 parts HO-SAFF. The 5000 mg/kg EE diets contained a fat blend consisting of: 1 part flax, 5 parts HCOC and 20 parts HO-SAFF. All study diets provided a total of 7% fat. Animals were fed study diets for approximately 30 days prior to the first collagen injection at day 0 and remained on the diets until study termination (day 45). Animals in the No Disease control and Dexamethasone groups were fed the diet containing OA-EE. Following a second collagen injection on day 21, arthritis severity was scored daily. Blood samples were collected at day 21 and day 45. Joints, 6 per an animal, were collected for histology and pathology on day 45.
Anti-collagen antibody production was measured prior to the antigen challenge (day 21) and at study termination (day 45). […] Means (n=5)±SD. *p<0.05**p<0.01.

The subject of experiment [1] is Collagen-Induced Arthritis (CIA). As to the kind of experiment: Collagen-Induced Arthritis, ethyl esters (CIA-EE, Example 1): clinical arthritis severity and incidence. To be noted: for arthritis severity score / arthritis severity score as area under the curve (AUC): days 18-45; for arthritis severity score as area under the curve (AUC): FIG. 2. The class given is in vivo, Male DBA/1O1aHsd mice.
From the text: The anti-arthritic activity of DHA, DPAn6, DHA/DPAn6 (DHA S-oil ratio) and DHA/EPA (fish oil ratio) ethyl esters (EE) in a chronic mouse model of inflammation, Collagen-Induced Arthritis (CIA), was studied.
Male DBA/1O1aHsd mice (3.5-4 weeks of age) were randomized by weight and enrolled in the study after a three day quarantine in which animals were fed the AlN-93G diet with a modified base fat: 1 part flax seed oil (flax), 9 parts hydrogenated coconut oil (HCOC) and 21 parts high-oleic safflower oil (HO-SAFF). 15 animals were enrolled per study group, with the exception of the No Disease control that had 4 animals. Study groups consisted of:
as §1
Data was analyzed and compared by one-way ANOVA using the Bonferroni post-test to compare treatment groups to respective placebo control and to make comparisons between treatment groups (GraphPad, Prism, Version 4.0). Effects were considered to be statistically significant at p<0.05.
Arthritis severity was assessed from day 18 to 45; a score of 0 represented an animal devoid of clinical arthritis symptoms and a score of 5 represented advanced clinical arthritis. Scores from 0-5 (most severe) were assigned to each digit on the fore and hind limbs based on erythema, swelling and mobility and the mean arthritis severity per animal was determined.
The incidence of disease was reduced in animals treated with DHA-EE (FIG. 3A/B). A clinical arthritis score greater than 0 was considered diseased. The incidence of disease at day 45 was 13% in animals treated with 2500 mg/kg DHA-EE, as compared to 100% disease incidence in OA-EE (placebo) control animals.

With `CC/C=C\C/C=C\C/C=C\C/C=C\C/C=C\C/C=C\CCC(=O)OCC` [DHA-EE], the “level of plasma anti-collagen antibodies” value in the experiment on anti-collagen antibodies (2500 mg/kg) and with anti-collagen antibodies (5000 mg/kg) was “reduced the level of anti-collagen antibodies” each time. Besides, the arthritis severity score entry is “reduced arthritis severity” in experiment [1] (2500 mg/kg in diet, FIG. 1A) and “reduced arthritis severity” in experiment [1] (5000 mg/kg in diet, FIG. 1B). In addition, the “arthritis severity score as area under the curve (AUC)” value in experiment [1] (2500 mg/kg, vs 2500 mg/kg OA-EE (placebo) control) is given as “significantly reduced arthritis severity”; in experiment [1] (5000 mg/kg, vs 5000 mg/kg OA-EE (placebo) control) it was “significantly reduced arthritis severity”. The “arthritis severity, comparison between treatment groups” value in experiment [1] (5000 mg/kg) is recorded as “more potent than DHA/EPA-EE”. Also, the “incidence of disease (clinical arthritis score greater than 0)” value in experiment [1] (day 45, 2500 mg/kg, FIG. 3A) amounted to 13%. Also, the “arthritis severity, comparison with dexamethasone” value in experiment [1] (dose not stated in sentence (2500 and 5000 mg/kg tested), dexamethasone 0.1 mg/kg) was “as effective as dexamethasone”.

The values above are taken from patent US20130137767A1, “Methods and Compositions for Treating Arthritis with Docosahexaenoic Acid” (DSM IP ASSETS B.V., priority 2010, published 2013).
